In publication PMC10175918 (Communications Biology, 2023):
Each block holds one molecule with its values, some of them ahead of it.

Tests used:
[1] = biological target: T1, urotensin-II receptor (UTS2R) (Homo sapiens, UniProt Q9UKP6); assay: TGFα-shedding assay, concentration-response on UTS2R (endogenous G protein), with or without urantide; type: cell-based; conditions: for UTS2R activation: TGFα-shedding, screening 10 μM and response curves (Fig. 1a, Supplementary Fig. 1a)
T1 construct: expressed in transfected cells; host or cells: HEK293A
T1 sequence (Q9UKP6 1-389): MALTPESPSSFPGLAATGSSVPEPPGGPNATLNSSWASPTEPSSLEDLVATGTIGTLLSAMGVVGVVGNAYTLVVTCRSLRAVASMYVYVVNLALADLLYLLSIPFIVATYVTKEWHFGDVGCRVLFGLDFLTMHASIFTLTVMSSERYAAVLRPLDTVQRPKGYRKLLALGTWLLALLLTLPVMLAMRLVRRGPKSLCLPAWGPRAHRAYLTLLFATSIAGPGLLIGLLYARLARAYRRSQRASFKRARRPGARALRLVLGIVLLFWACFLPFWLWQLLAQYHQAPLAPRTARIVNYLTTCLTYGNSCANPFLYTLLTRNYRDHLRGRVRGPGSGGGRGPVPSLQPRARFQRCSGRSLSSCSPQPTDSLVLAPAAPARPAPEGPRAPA

[2] = biological target: T2, FLAG-UTS2R (urotensin-II receptor) (human) (UniProt Q9UKP6)
T2 sequence: T1 sequence (Q9UKP6 1-389)

Molecule: N#C[C@@]1(c2ccc3c(N)ncnn23)O[C@H](CO)[C@@H](O)[C@H]1O [GS-441524]
- UTS2R activation [1]: no effect on UTS2R activation

Molecule: CC(C)[C@H](NC(=O)[C@@H]1CSSC[C@H](NC(=O)[C@H](CC(=O)O)NC(=O)[C@@H]2CCCN2C(=O)[C@@H](NC(=O)[C@@H](N)CCC(=O)O)[C@@H](C)O)C(=O)N[C@@H](Cc2ccccc2)C(=O)N[C@@H](Cc2c[nH]c3ccccc23)C(=O)N[C@@H](CCCCN)C(=O)N[C@@H](Cc2ccc(O)cc2)C(=O)N1)C(=O)O [UT2]
- Emax ([1]; WT UTS2R, without chimeric Gα protein, read-out: Emax): 59 ± 0.7%
- activation at 0.1 µM ([1]; compound concentration Log10 (M) -7, without urantide, read-out: UTS2R activation (%AP-TGFα release)): 59.6%
- activation at 0.01 µM ([1]; compound concentration Log10 (M) -8, without urantide, read-out: UTS2R activation (%AP-TGFα release)): 60.1%
- activation at 0.001 µM ([1]; compound concentration Log10 (M) -9, without urantide, read-out: UTS2R activation (%AP-TGFα release)): 58.8%
- activation at 0.0001 µM ([1]; compound concentration Log10 (M) -10, without urantide, read-out: UTS2R activation (%AP-TGFα release)): 51.6%
- activation at 10 pM ([1]; compound concentration Log10 (M) -11, without urantide, read-out: UTS2R activation (%AP-TGFα release)): 18.4%

Other lines, results leading:

- UTS2R activation [1]: no effect on UTS2R activation
Molecule: C[C@H](NP(=O)(O)OC[C@H]1O[C@@](C#N)(c2ccc3c(N)ncnn23)[C@H](O)[C@@H]1O)C(=O)O [GS-704277]

- TGFα-shedding assay (AP-TGFα release), untagged UTS2R in HEK293A cells: Emax of receptor activation by UT2 (%AP-TGFα release) [2]: 59
- TGFα-shedding assay (AP-TGFα release), untagged UTS2R in HEK293A cells: pEC50 of receptor activation by UT2 [2]: 10.7
Molecule: ETPDCFWKYCV [urotensin-II (UT2), endogenous peptidic ligand of UTS2R]
